Read-outs that look alike come from different tables or passages of the source. A value given as a limit tells only on which side of the number the result lay.

For this assay, the target named is T1, MCH receptor (Homo sapiens, UniProt Q99705).
T1 construct: expressed in transfected cells; host or cells: CHO cells
Kind of assay: MCH Receptor Binding Assay ([125I]-MCH, SPA, membranes from CHO cells expressing the MCH receptor). To be noted: CHO cell membranes. The procedure:
MCH Receptor Binding Assay:
Membranes from CHO cells expressing the MCH receptor were prepared by lysing cells with 5 mM HEPES for 15 min at 4C. Cell lysates were centrifuged ([…], 15 min) and the pellet was resuspended in 5 mM HEPES. For each 96-well plate (Microlite, Dynex Technologies), 1 mg of cell membranes were incubated with 10 mg of wheat germ agglutinin SPA beads (Amersham) for 5 min at 4 C in a volume of 10 ml of binding buffer (25 mM HEPES, 10 mM MGCl2, 10 mM NaCl, 5 mM MnCl2, 0.1% BSA). The membrane/bead mixture was centrifuged (1500×g, 3.5 min), the supernatant was aspirated, and the pellet was resuspended in 10 ml binding buffer. The centrifugation, aspiration and resuspension were then repeated. The membrane/bead mixture (100 μl) was then added to 96-well plates containing 50 μof 500 pM [^125I]-MCH (NEN) and […] of the appropriate concentration of compound (4× the desired final concentration). Nonspecific binding was determined by including 1 μM MCH in the binding reaction. The binding reaction was incubated at room temperature for 2 h. Plates were then analyzed in a TOPCOUNT microplate scintillation counter (Packard). Data was analyzed and Ki values were determined using GraphPad Prism.

T1 sequence (Q99705 whole entry): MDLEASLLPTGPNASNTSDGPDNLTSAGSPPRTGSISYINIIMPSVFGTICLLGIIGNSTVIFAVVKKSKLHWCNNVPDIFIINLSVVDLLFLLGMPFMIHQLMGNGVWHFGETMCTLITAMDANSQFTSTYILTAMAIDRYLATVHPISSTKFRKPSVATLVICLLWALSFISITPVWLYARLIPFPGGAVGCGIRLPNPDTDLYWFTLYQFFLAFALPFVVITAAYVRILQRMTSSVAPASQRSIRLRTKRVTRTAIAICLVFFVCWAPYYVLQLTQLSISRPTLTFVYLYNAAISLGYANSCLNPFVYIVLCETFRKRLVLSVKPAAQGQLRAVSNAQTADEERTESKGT

Turning to `CC(C)N1CCC2(CC1)c1ccc(-c3cccc(C#N)c3)cc1CCN2CC(=O)Nc1cc(Cl)cc(Cl)c1` [Compound 7a], the Ki (read-out: Activity (Ki class)) is under 30 nM.

With `CC(C)N1CCC2(CC1)c1ccc(-c3cccc(C#N)c3)cc1CCN2CC(=O)Nc1ccc(F)c(Cl)c1` [Compound 7b], under “read-out: Activity (Ki class)”, the Ki lay in the range of 30 to 100 nM.

Take `CC(C)N1CCC2(CC1)c1ccc(-c3cccc(C#N)c3)cc1CCN2CC(=O)Nc1cc(F)cc(F)c1` [Compound 7c]: for the setting “read-out: Activity (Ki class)”, the Ki lay in the range of 30 to 100 nM.

For `CC(C)N1CCC2(CC1)c1ccc(-c3cccc(C#N)c3)cc1CCN2CC(=O)Nc1ccc(Cl)c(C(F)(F)F)c1` [Compound 7d], under “read-out: Activity (Ki class)”, the Ki was over 100 nM.

As for `CC(C)N1CCC2(CC1)c1ccc(-c3cccc(C#N)c3)cc1CCN2CC(=O)Nc1ccc(Cl)c(Cl)c1` [Compound 7e], where the note is “read-out: Activity (Ki class)”, the Ki was over 100 nM.

`N#Cc1cccc(-c2ccc3c(c2)CCN(CC(=O)Nc2ccc(F)c(Cl)c2)C32CCN(CC3CC3)CC2)c1` [Compound 8a]: the Ki (read-out: Activity (Ki class)) is under 30 nM.

As for `N#Cc1cccc(-c2ccc3c(c2)CCN(CC(=O)Nc2ccc(Cl)cc2)C32CCN(CC3CC3)CC2)c1` [Compound 8b], under “read-out: Activity (Ki class)”, the Ki is over 100 nM.

Turning to `N#Cc1cccc(-c2ccc3c(c2)CCN(CC(=O)Nc2cccc(Cl)c2)C32CCN(CC3CC3)CC2)c1` [Compound 8c], under “read-out: Activity (Ki class)”, the inhibitory constant (Ki) is 30 to 100 nM.

In the case of `N#Cc1cccc(-c2ccc3c(c2)CCN(CC(=O)Nc2ccc(F)c(F)c2)C32CCN(CC3CC3)CC2)c1` [Compound 8d], the Ki (read-out: Activity (Ki class)) fell in the range of 30 to 100 nM.

In the case of `N#Cc1cccc(-c2ccc3c(c2)CCN(CC(=O)Nc2ccc(F)c(C(F)(F)F)c2)C32CCN(CC3CC3)CC2)c1` [Compound 8e], under “read-out: Activity (Ki class)”, the Ki is under 30 nM.

`N#Cc1cccc(-c2ccc3c(c2)CCN(CC(=O)Nc2cc(F)cc(C(F)(F)F)c2)C32CCN(CC3CC3)CC2)c1` [Compound 8f]: where the note is “read-out: Activity (Ki class)”, the Ki lay in the range of 30 to 100 nM.

In the case of `N#Cc1cccc(-c2ccc3c(c2)CCN(CC(=O)Nc2cc(F)cc(F)c2)C32CCN(CC3CC3)CC2)c1` [Compound 8g], under “read-out: Activity (Ki class)”, the Ki was 30 to 100 nM.

Turning to `N#Cc1cccc(-c2ccc3c(c2)CCN(CC(=O)Nc2ccc(Cl)c(Cl)c2)C32CCN(CC3CC3)CC2)c1` [Compound 8h], the Ki (read-out: Activity (Ki class)) was over 100 nM.

As for `N#Cc1cccc(-c2ccc3c(c2)CCN(CC(=O)Nc2ccc(Cl)c(C(F)(F)F)c2)C32CCN(CC3CC3)CC2)c1` [Compound 8i], the Ki (read-out: Activity (Ki class)) was over 100 nM.

`N#Cc1cccc(-c2ccc3c(c2)CCN(CC(=O)Nc2cc(Cl)cc(Cl)c2)C32CCNCC2)c1` [Compound 10c]: the Ki (read-out: Activity (Ki class)) was in the range of 30 to 100 nM.

Consider `N#Cc1cccc(-c2ccc3c(c2)CCN(CC(=O)Nc2cc(Cl)cc(Cl)c2)C32CCN(C3CCCCCC3)CC2)c1` [Compound 11a], for which the Ki was under 30 nM (read-out: Activity (Ki class)) and 11 nM (read-out: Ki value).

For `N#Cc1cccc(-c2ccc3c(c2)CCN(CC(=O)Nc2cc(Cl)cc(Cl)c2)C32CCN(C3CCC3)CC2)c1` [Compound 11b], the inhibitory constant (Ki) (read-out: Activity (Ki class)) is under 30 nM.

Turning to `N#Cc1cccc(-c2ccc3c(c2)CCN(CC(=O)Nc2cc(Cl)cc(Cl)c2)C32CCN(CC3CC3)CC2)c1` [Compound 11c], where the note is “read-out: Activity (Ki class)”, the Ki is under 30 nM.

For `N#Cc1cccc(-c2ccc3c(c2)CCN(CC(=O)Nc2cc(Cl)cc(Cl)c2)C32CCN(C3CCCC3)CC2)c1` [Compound 11d], for the setting “read-out: Activity (Ki class)”, the Ki is under 30 nM.

As for `N#Cc1cccc(-c2ccc3c(c2)CCN(CC(=O)Nc2cc(Cl)cc(Cl)c2)C32CCN(CCO)CC2)c1` [Compound 11e], the inhibition constant (Ki) (read-out: Activity (Ki class)) was 30 to 100 nM.

Turning to `CN1CCC2(CC1)c1ccc(-c3cccc(C#N)c3)cc1CCN2CC(=O)Nc1cc(Cl)cc(Cl)c1` [Compound 11f], the Ki (read-out: Activity (Ki class)) fell in the range of 30 to 100 nM.

For the molecule `CCN1CCC2(CC1)c1ccc(-c3cccc(C#N)c3)cc1CCN2CC(=O)Nc1cc(Cl)cc(Cl)c1` [Compound 11g], where the note is “read-out: Activity (Ki class)”, the Ki lay within 30 to 100 nM.

For the molecule `N#Cc1cccc(-c2ccc3c(c2)CCN(CC(=O)Nc2cc(Cl)cc(Cl)c2)C32CCN(C3CCOCC3)CC2)c1` [Compound 11h], the Ki (read-out: Activity (Ki class)) was under 30 nM.

Consider `N#Cc1cccc(-c2ccc3c(c2)CCN(CC(=O)Nc2cc(Cl)cc(Cl)c2)C32CCN(Cc3ccoc3)CC2)c1` [Compound 11i], for which, under “read-out: Activity (Ki class)”, the Ki lay within 30 to 100 nM.

For the molecule `N#Cc1cccc(-c2ccc3c(c2)CCN(CC(=O)Nc2cc(Cl)cc(Cl)c2)C32CCN(C3CCSC3)CC2)c1` (stereo not shown) [Compound 11j], the Ki (read-out: Activity (Ki class)) fell in the range of 30 to 100 nM.

For the molecule `CC(C)N1CCC2(CC1)c1ccc(-c3cccc(C#N)c3)cc1CCN2Cc1nc2ccccc2[nH]1` [Compound 12a], the Ki (read-out: Activity (Ki class)) is over 100 nM.

As for `N#Cc1cccc(-c2ccc3c(c2)CCN(Cc2nc4cc(Cl)c(Cl)cc4[nH]2)C32CCNCC2)c1` [Compound 12d], the Ki (read-out: Activity (Ki class)) is over 100 nM.

For `N#Cc1cccc(-c2ccc3c(c2)CCN(Cc2nc4cc(F)c(Cl)cc4[nH]2)C32CCNCC2)c1` [Compound 12e], where the note is “read-out: Activity (Ki class)”, the Ki is over 100 nM.

In the case of `N#Cc1cccc(-c2ccc3c(c2)CCN(Cc2nc4cc(Cl)c(Cl)cc4[nH]2)C32CCN(CC3CC3)CC2)c1` [Compound 12f], where the note is “read-out: Activity (Ki class)”, the Ki was over 100 nM.

As for `CC(C)(C)OC(=O)N1CCC2(CC1)c1ccc(-c3cccc(C#N)c3)cc1CCN2CC(=O)Nc1cc(Cl)cc(Cl)c1` [Compound 30a], for the setting “read-out: Activity (Ki class)”, the inhibition constant (Ki) was over 100 nM.

On to `CC(=O)N1CCC2(CC1)c1ccc(-c3cccc(C#N)c3)cc1CCN2CC(=O)Nc1cc(Cl)cc(Cl)c1` [Compound 30b], for which the inhibition constant Ki (read-out: Activity (Ki class)) is over 100 nM.

As to `CS(=O)(=O)N1CCC2(CC1)c1ccc(-c3cccc(C#N)c3)cc1CCN2CC(=O)Nc1cc(Cl)cc(Cl)c1` [Compound 30c], under “read-out: Activity (Ki class)”, the Ki was over 100 nM.

As for `CN(C)S(=O)(=O)N1CCC2(CC1)c1ccc(-c3cccc(C#N)c3)cc1CCN2CC(=O)Nc1cc(Cl)cc(Cl)c1` [Compound 30d], where the note is “read-out: Activity (Ki class)”, the Ki is over 100 nM.

A word on the Ki: it is the dissociation constant of the complex between target and ligand, obtained from inhibition or displacement.

Values taken from patent US7109207B2, “Spirosubstituted piperidines as selective melanin concentrating hormone receptor antagonists for the treatment of obesity” (Schering Corporation, priority 2002, dated 2006).
